# Experimental data: patent US9120762B2, “Salts of bicyclo-substituted pyrazolon azo derivatives, preparation method and use thereof” (Jiangsu Hengrui Medicine Co., Ltd., priority 2009, dated 2015)
# Like-named read-outs stand apart in the source and are kept apart here.
# Key:
# [1] = Pharmacokinetics assay in rats; format: in vivo, SD rats; details: SD rats, intragastric, 50 mg/Kg (as free acid); for Vd/F / AUC / CL/F / half-life / MRT / Cmax / Tmax: both sexes, rat, po; for Vd/F: read-out: Apparent Distribution Volume Vz/F; for AUC: read-out: Area Under Curve AUC; for CL/F: read-out: Clearance CL/F (converted); for half-life: read-out: Half-Life t½ (converted); for MRT: read-out: Mean Residence Time MRT; for Cmax: read-out: Plasma Conc. Cmax; for Tmax: read-out: Time to peak Tmax
# Experimental: The compounds of the present disclosure were administrated intragastrically to rats to determine the drug concentration in plasma at different time points by HPLC-UV. The pharmacokinetic behavior of the compounds of the present disclosure was studied and evaluated in rats. […] Healthy adult SD rats, male and female in half, were purchased from SINO-BRITSH SIPPR/BK LAB.ANIMAL LTD., Colo., License number: SCXK (Shanghai) 2003-0002 The test compound was diluted with 1% sodium carboxymethyl cellulose to 5 mg/mL (calculated as the free acid form) of suspension before use. Healthy adult SD rats, male and female in half, were divided into 23 groups. […] The plasma samples were stored at −20° C. until analysis. The rats were fed 2 hours after administration. […] Then the mixture was mixed for 3 minute using a vortexer and centrifuged for 10 minutes at 13,500 rpm. 40 μL of the supernatant was analyzed by HPLC-UV. The compartmental model of pharmacokinetics was fitted for the test compounds and the major pharmacokinetic parameters were calculated in which Cmax and tmax were the actually measured values.
# [2] = Solubility assay in water, 0.1% hydrochloric acid and methanol; format: physicochemical
# Experimental: The solubility was characterized by:
# The term “very soluble” refers to that 1 g (mL) of solute can be dissolved in less than 1 mL of solvent;
# The term “freely soluble” refers to that 1 g (mL) of solute can be dissolved in from 1 mL to 10 mL, not including 10 mL of solvent;
# The term “soluble” refers to that 1 g (mL) of solute can be dissolved in from 10 mL to 30 mL, not including 30 mL of solvent;
# The term “sparingly soluble” refers to that 1g (mL) of solute can be dissolved in from 30 mL to 100 mL, not including 100 mL of solvent;
# The term “slightly soluble” refers to that 1g (mL) of solute can be dissolved in from 100 mL to 1000 mL, not including 1000 mL of solvent;
# The term “very slightly soluble” refers to that 1g (mL) of solute can be dissolved in from 1000 mL to 10000 mL, not including 10000 mL of solvent;
# The term “practically insoluble or insoluble” refers to that 1g (mL) of solute cannot be dissolved completely in 10000 mL of solvent.
compound,measurement,setting,value
"CC1=NN(c2ccc3c(c2)CCCC3)C(=O)/C1=N\Nc1cccc(-c2ccc(C(=O)O)o2)c1O [Example 11, (Z)-5-(2-hydroxy-3-{N′-[3-methyl-5-oxo-1-(5,6,7,8-tetrahydro-naphthalen-2-yl)-1,5-dihydro-pyrazol-4-ylidene]-hydrazino}-phenyl)-furan-2-carboxylic acid bis-(piperazine)]",Area Under Curve AUC,[1]; 50 mg/kg,270 ± 178 µg·h/mL
same,Clearance CL/F,[1]; 50 mg/kg,0.877 ± 1.465 L/h/kg
same,Half-Life t½,[1]; 50 mg/kg,12.1 ± 7.19 h
same,Plasma Conc. Cmax,[1]; 50 mg/kg,40.2 ± 24.3 µg/mL
same,Time to peak Tmax,[1]; 50 mg/kg,1.5 ± 0.58 h
"CC1=NN(c2ccc3c(c2)CCC3)C(=O)/C1=N\Nc1cccc(-c2csc(C(=O)O)c2)c1O.CCNCC.CCNCC [Example 20, (Z)-4-{2-hydroxy-3-[N′-(1-indan-5-yl-3-methyl-5-oxo-1,5-dihydro-pyrazol-4-ylidene)-hydrazino]-phenyl}-thiophene-2-carboxylic acid bis-(diethylamine)]",Vd/F,[1]; in vivo,2.05 ± 0.68 L/kg
same,AUC,[1]; in vivo,275 ± 116 µg·h/mL
same,CL/F,[1]; in vivo,3.5 mL/min/kg
same,half-life,[1]; in vivo,434 ± 147 min
same,MRT,[1]; in vivo,7.59 ± 1.33 h
same,Cmax,[1]; in vivo,46100 ± 15700 ng/mL
same,Tmax,[1]; in vivo,4.5 ± 1 h
"CC1=NN(c2ccc3c(c2)CCC3)C(=O)/C1=N\Nc1cccc(-c2ccc(C(=O)O)o2)c1O.CCNCC.CCNCC [Example 17, (Z)-5-{2-hydroxy-3-[N′-(1-indan-5-yl-3-methyl-5-oxo-1,5-dihydro-pyrazol-4-ylidene)-hydrazino]-phenyl}-furan-2-carboxylic acid bis-(diethylamine)]",Vd/F,[1]; in vivo,8.16 ± 11.1 L/kg
same,AUC,[1]; in vivo,138 ± 33 µg·h/mL
same,CL/F,[1]; in vivo,6.33 mL/min/kg
same,half-life,[1]; in vivo,762 ± 882 min
same,MRT,[1]; in vivo,14 ± 12 h
same,Cmax,[1]; in vivo,21500 ± 10500 ng/mL
same,Tmax,[1]; in vivo,3.38 ± 3.04 h
"CC1=NN(c2ccc3c(c2)CCC3)C(=O)/C1=N\Nc1cccc(-c2ccc(C(=O)O)o2)c1O [Example 18, (Z)-5-{2-hydroxy-3-[N′-(1-indan-5-yl-3-methyl-5-oxo-1,5-dihydro-pyrazol-4-ylidene)-hydrazino]-phenyl}-furan-2-carboxylic acid bis-(piperazine)]",Area Under Curve AUC,[1]; 50 mg/kg,119 ± 102 µg·h/mL
same,Clearance CL/F,[1]; 50 mg/kg,0.63 ± 0.35 L/h/kg
same,Half-Life t½,[1]; 50 mg/kg,3.99 ± 1.60 h
same,Mean Residence Time MRT,[1]; 50 mg/kg,5.31 ± 2.64 h
same,Plasma Conc. Cmax,[1]; 50 mg/kg,23.3 ± 11.6 µg/mL
same,Time to peak Tmax,[1]; 50 mg/kg,1.63 ± 1.63 h
same,solubility,[2]; 0.1% hydrochloric acid,<0.001 mg/mL
same,solubility,[2]; methanol,6.096 mg/mL
same,solubility,[2]; water,2.741 mg/mL
"CC1=NN(c2ccc3c(c2)CCC3)C(=O)/C1=N\Nc1cccc(-c2csc(C(=O)O)c2)c1O.NCCO.NCCO [Example 19, (Z)-4-{2-hydroxy-3-[N′-(1-indan-5-yl-3-methyl-5-oxo-1,5-dihydro-pyrazol-4-ylidene)-hydrazino]-phenyl}-thiophene-2-carboxylic acid bis-(ethanolamine)]",Vd/F,"[1]; SD, plasma, 50 mg/kg",5.47 ± 2.72 L/kg
same,AUC,"[1]; SD, plasma, 50 mg/kg",89.2 ± 7.2 µg·h/mL
same,CL/F,"[1]; SD, plasma, 50 mg/kg",14.7 mL/min/kg
same,half-life,"[1]; SD, plasma, 50 mg/kg",343 ± 221 min
same,MRT,"[1]; SD, plasma, 50 mg/kg",7.85 ± 2.92 h
same,Cmax,"[1]; SD, plasma, 50 mg/kg",20800 ± 17300 ng/mL
same,Tmax,"[1]; SD, plasma, 50 mg/kg",1.81 ± 2.79 h
"CC1=NN(c2ccc3c(c2)CCC3)C(=O)/C1=N\Nc1cccc(-c2cccc(C(=O)O)c2)c1O.CCNCC.CCNCC [Example 2, (Z)-2′-hydroxy-3′-[N′-(1-indan-5-yl-3-methyl-5-oxo-1,5-dihydro-pyrazol-4-ylidene)-hydrazino]-biphenyl-3-carboxylic acid bis-(diethylamine)]",Vd/F,[1]; in vivo,0.83 ± 0.16 L/kg
same,AUC,[1]; in vivo,833 ± 64 µg·h/mL
same,CL/F,[1]; in vivo,1 mL/min/kg
same,half-life,[1]; in vivo,573 ± 86.4 min
same,MRT,[1]; in vivo,11.1 ± 0.76 h
same,Cmax,[1]; in vivo,83900 ± 11200 ng/mL
same,Tmax,[1]; in vivo,5 ± 1.16 h
"CC1=NN(c2ccc3c(c2)CCCC3)C(=O)/C1=N\Nc1cccc(-c2ccc(C(=O)O)o2)c1O [Example 7d, (Z)-5-(2-hydroxy-3-{N′-[3-methyl-5-oxo-1-(5,6,7,8-tetrahydro-naphthalen-2-yl)-1,5-dihydro-pyrazol-4-ylidene]-hydrazino}-phenyl)-furan-2-carboxylic acid]",Half-Life t½,[1]; 50 mg/kg,7.42 ± 7.19 h
same,Plasma Conc. Cmax,[1]; 50 mg/kg,16.2 ± 3.9 µg/mL
same,Time to peak Tmax,[1]; 50 mg/kg,2.5 ± 1.0 h
"CC1=NN(c2ccc3c(c2)CCC3)C(=O)/C1=N\Nc1cccc(-c2ccc(C(=O)O)o2)c1O.NCCO.NCCO [Example 16, (Z)-5-{2-hydroxy-3-[N′-(1-indan-5-yl-3-methyl-5-oxo-1,5-dihydro-pyrazol-4-ylidene)-hydrazino]-phenyl}-furan-2-carboxylic acid bis-(ethanolamine)]",Vd/F,"[1]; SD, plasma, 50 mg/kg",6.33 ± 4.57 L/kg
same,AUC,"[1]; SD, plasma, 50 mg/kg",52.4 ± 48 µg·h/mL
same,CL/F,"[1]; SD, plasma, 50 mg/kg",32.3 mL/min/kg
same,half-life,"[1]; SD, plasma, 50 mg/kg",125 ± 104 min
same,MRT,"[1]; SD, plasma, 50 mg/kg",3.84 ± 1.03 h
same,Cmax,"[1]; SD, plasma, 50 mg/kg",19600 ± 16300 ng/mL
same,Tmax,"[1]; SD, plasma, 50 mg/kg",2 ± 0.82 h
"CC1=NN(c2ccc3c(c2)CCC3)C(=O)/C1=N\Nc1cccc(-c2cccc(C(=O)O)c2)c1O [Example 3, (Z)-2′-hydroxy-3′-[N′-(1-indan-5-yl-3-methyl-5-oxo-1,5-dihydro-pyrazol-4-ylidene)-hydrazino]-biphenyl-3-carboxylic acid bis-(piperazine)]",Area Under Curve AUC,[1]; 50 mg/kg,842 ± 185 µg·h/mL
same,Half-Life t½,[1]; 50 mg/kg,8.87 ± 0.78 h
same,Mean Residence Time MRT,[1]; 50 mg/kg,13.0 ± 0.9 h
same,Plasma Conc. Cmax,[1]; 50 mg/kg,79 ± 9.3 µg/mL
same,CL/F,"[1]; SD, plasma, 50 mg/kg",1.03 mL/min/kg
same,Tmax,"[1]; SD, plasma, 50 mg/kg",5.5 ± 1 h
same,solubility,[2]; 0.1% hydrochloric acid,<0.001 mg/mL
same,solubility,[2]; methanol,1.534 mg/mL
same,solubility,[2]; water,2.290 mg/mL
"CC1=NN(c2ccc(C)c(C)c2)C(=O)/C1=N\Nc1cccc(-c2cccc(C(=O)O)c2)c1O [Eltrombopag, eltrombopag, reference compound]",Vd/F,"[1]; SD, plasma, 50 mg/kg",0.95 ± 0.42 L/kg
same,AUC,"[1]; SD, plasma, 50 mg/kg",680 ± 255 µg·h/mL
same,CL/F,"[1]; SD, plasma, 50 mg/kg",1.48 mL/min/kg
same,half-life,"[1]; SD, plasma, 50 mg/kg",469 ± 80.4 min
same,MRT,"[1]; SD, plasma, 50 mg/kg",11.2 ± 2.6 h
same,Cmax,"[1]; SD, plasma, 50 mg/kg",61800 ± 18700 ng/mL
same,Tmax,"[1]; SD, plasma, 50 mg/kg",5.5 ± 1 h
"CC1=NN(c2ccc3c(c2)CCC3)C(=O)/C1=N\Nc1cccc(-c2csc(C(=O)O)c2)c1O [Example 21, (Z)-4-{2-hydroxy-3-[N′-(1-indan-5-yl-3-methyl-5-oxo-1,5-dihydro-pyrazol-4-ylidene)-hydrazino]-phenyl}-thiophene-2-carboxylic acid bis-(piperazine)]",Area Under Curve AUC,[1]; 50 mg/kg,380 ± 109 µg·h/mL
same,Clearance CL/F,[1]; 50 mg/kg,0.14 ± 0.04 L/h/kg
same,Half-Life t½,[1]; 50 mg/kg,6.86 ± 0.48 h
same,Mean Residence Time MRT,[1]; 50 mg/kg,8.61 ± 0.31 h
same,Plasma Conc. Cmax,[1]; 50 mg/kg,61.1 ± 1.38 µg/mL
same,Time to peak Tmax,[1]; 50 mg/kg,5.5 ± 1.0 h
same,solubility,[2]; 0.1% hydrochloric acid,<0.001 mg/mL
same,solubility,[2]; methanol,2.416 mg/mL
same,solubility,[2]; water,0.814 mg/mL
